Results published in DBAASP.
Converted amounts (≈) assume the structure as drawn. “And” between values parts separate entries of the source, which are not always exact repeats. Equal entries are not always repeated. One block for each compound: values may come before it.

Columns and labels:
Experiment in all cases: ≥ marks a high value that may be exact or a test limit, other limits are often not marked, values filed in µg/mL are converted to µM
[1] = test system: Pseudomonas aeruginosa ATCC 27853
[2] = test system: Acinetobacter baumannii KCTC 2508
[3] = test system: Klebsiella pneumoniae KCTC 2208
[4] = test system: Staphylococcus aureus ATCC 25923
[5] = test system: Candida albicans NCTC 3179
[6] = test system: Escherichia coli ATCC 25922
[7] = test system: Pseudomonas aeruginosa MTCC 2488
[8] = test system: Staphylococcus aureus MTCC 96
[9] = test system: Klebsiella pneumoniae MTCC 443
[10] = test system: Fusarium oxysporum f.sp. vasinfectum
Fusarium solani = test system: Fusarium solani
Ramulariopsis gossypii = test system: Ramulariopsis gossypii
[11] = test system: Pseudomonas syringae pv. tabaci
Fusarium oxysporum = test system: Fusarium oxysporum
[12] = test system: Pectobacterium carotovorum
[13] = test system: Xanthomonas campestris pv. citri
Rhizoctonia solani = test system: Rhizoctonia solani
[14] = test system: Bacillus cereus ATCC 14579
[15] = test system: Cryptococcus neoformans ATCC 28957
[16] = test system: Bacillus subtilis ATCC 23857
Trichoderma asperellum = test system: Trichoderma asperellum
[17] = test system: Candida albicans ATCC 90028
[18] = test system: Pseudomonas aeruginosa 5167
[19] = test system: Pseudomonas aeruginosa 8600
[20] = test system: Pseudomonas aeruginosa 1570
[21] = test system: Streptococcus sanguinis ATCC 49295
[22] = test system: Streptococcus gordonii ATCC 10558
[23] = test system: Streptococcus mutans UA159
[24] = test system: Streptococcus mutans GS-5
[25] = test system: Enterococcus faecalis ATCC 29212
[26] = test system: Staphylococcus aureus ATCC BAA-44
Escherichia coli ML-35p = test system: Escherichia coli ML-35p
Vibrio alginolyticus = test system: Vibrio alginolyticus
Streptococcus pyogenes = test system: Streptococcus pyogenes
Staphylococcus aureus = test system: Staphylococcus aureus
Aeromonas hydrophila = test system: Aeromonas hydrophila
Escherichia coli = test system: Escherichia coli
Vibrio fluvialis = test system: Vibrio fluvialis
Vibrio parahaemolyticus = test system: Vibrio parahaemolyticus

SMILES: CC[C@H](C)[C@H](N)C(=O)N[C@@H](C)C(=O)N[C@@H](CCCN=C(N)N)C(=O)N[C@@H](CCCN=C(N)N)C(=O)N[C@@H](C)C(=O)N[C@@H](CC(C)C)C(=O)N[C@@H](CCCCN)C(=O)N[C@@H](CCCCN)C(=O)N[C@@H](C)C(=O)N[C@@H](CCCCN)C(=O)N[C@@H](CCCN=C(N)N)C(=O)N[C@@H](C)C(=O)N[C@@H](CCCN=C(N)N)C(=O)N[C@@H](Cc1cnc[nH]1)C(=O)N[C@H](C(=O)N[C@H](C(=O)N1CCC[C@H]1C(=O)N[C@@H](CCC(N)=O)C(=O)N[C@@H](CS)C(=O)N[C@@H](CCCCN)C(=O)N[C@@H](CCCCN)C(=O)N[C@@H](Cc1ccccc1)C(=O)NCC(=O)N[C@@H](CCCN=C(N)N)C(=O)N[C@@H](CCCN=C(N)N)C(N)=O)[C@@H](C)CC)[C@@H](C)O [IARRALKKAKRARHTIPQCKKFGRR]
MIC [1]: 1 µM (≈ 2.99 µg/mL)
MIC [2]: 4 µM (≈ 12 µg/mL)
MIC [3]: 8 µM (≈ 23.9 µg/mL)

SMILES: CC[C@H](C)[C@H](NC(=O)[C@@H]1CCCN1C(=O)CNC(=O)[C@H](CO)NC(=O)[C@H](CO)NC(=O)[C@@H](NC(=O)[C@H](C)NC(=O)[C@H](CCC(N)=O)NC(=O)[C@H](Cc1ccccc1)NC(=O)[C@H](CCCN=C(N)N)NC(=O)[C@H](CC(C)C)NC(=O)[C@H](CC(C)C)NC(=O)[C@H](CC(C)C)NC(=O)[C@H](CCC(=O)O)NC(=O)[C@H](CCC(=O)O)NC(=O)[C@H](CO)NC(=O)[C@H](C)N)[C@@H](C)O)C(=O)N[C@@H](CC(C)C)C(=O)N[C@@H](CCCN=C(N)N)C(=O)N[C@@H](CCC(=O)O)C(=O)N[C@@H](CCC(=O)O)C(=O)N[C@@H](Cc1ccccc1)C(=O)N[C@@H](CCC(=O)O)C(=O)O [ASEELLLRFQATSSGPILREEFE]
MIC [4]: > 95.3 µM
MIC [5]: ≥ 95.3 µM
MIC [6]: > 95.3 µM

SMILES: CC(C)C[C@H](NC(=O)[C@H](CC(C)C)NC(=O)[C@H](CCCCN)NC(=O)[C@H](CCCCN)NC(=O)[C@H](CC(C)C)NC(=O)[C@H](CC(C)C)NC(=O)[C@H](CCCCN)NC(=O)[C@H](C)NC(=O)[C@@H](N)Cc1ccccc1)C(N)=O [FAKLLKKLL]
MIC [1]: 7.45 µM and 14.9 µM
MIC [18]: ≥ 59.6 µM
MIC [19]: 5.27 µM (≈ 5.65 µg/mL)
MIC [20]: 21.1 µM (≈ 22.6 µg/mL)

Further lines, with some results ahead:

MIC [7]: 30 µM (≈ 27.8 µg/mL)
MIC [8]: ≥ 80 µM
MIC [9]: ≥ 50 µM
SMILES: CC(C)C[C@H](NC(=O)[C@H](CCCCN)NC(=O)[C@H](CCCCN)NC(=O)[C@H](CC(C)C)NC(=O)[C@H](Cc1c[nH]c2ccccc12)NC(=O)[C@H](CCCCN)NC(=O)[C@@H](N)CC(C)C)C(N)=O [LKWLKKL]

MIC [10]: 10.7 µM (≈ 24.6 µg/mL)
MIC (Fusarium solani): 4 µM (≈ 9.21 µg/mL)
MIC (Ramulariopsis gossypii): 2 µM (≈ 4.6 µg/mL)
MIC [11]: ≥ 32 µM
MIC [4]: 16 µM (≈ 36.8 µg/mL)
MIC (Fusarium oxysporum): 16 µM (≈ 36.8 µg/mL)
MIC [1]: 16 µM (≈ 36.8 µg/mL)
MIC [12]: 16 µM (≈ 36.8 µg/mL)
MIC [13]: 16 µM (≈ 36.8 µg/mL)
MIC (Rhizoctonia solani): ≥ 32 µM
MIC [14]: ≥ 64 µM
MIC [15]: 4 µM (≈ 9.21 µg/mL)
MIC [16]: 8 µM (≈ 18.4 µg/mL)
MIC (Trichoderma asperellum): 16 µM (≈ 36.8 µg/mL)
MIC [6]: 13.3 µM (≈ 30.7 µg/mL)
MIC [17]: 6.67 µM (≈ 15.4 µg/mL)
SMILES: CSCC[C@H](NC(=O)[C@H](Cc1ccccc1)NC(=O)CNC(=O)[C@H](Cc1cnc[nH]1)NC(=O)[C@H](CC(C)C)NC(=O)[C@H](CO)NC(=O)CN)C(=O)N[C@@H](Cc1ccc(O)cc1)C(=O)N[C@@H](CCCCN)C(=O)N[C@@H](Cc1ccc(O)cc1)C(=O)N[C@@H](CC(C)C)C(=O)N[C@@H](CCCCN)C(=O)N[C@H](C(=O)N[C@@H](CC(C)C)C(=O)N[C@H](C(=O)N[C@@H](CC(C)C)C(=O)N[C@@H](CCCN=C(N)N)C(=O)N[C@@H](CC(C)C)C(=O)N[C@@H](Cc1ccc(O)cc1)C(N)=O)C(C)C)[C@@H](C)O [GSLHGFMYKYLKTLVLRLY]

MIC [21]: ≥ 224 µM
MIC [22]: ≥ 224 µM
MIC [23]: ≥ 224 µM
MIC [24]: ≥ 224 µM
SMILES: CC(C)C[C@H](NC(=O)[C@H](CCCN=C(N)N)NC(=O)[C@H](Cc1ccccc1)NC(=O)[C@H](Cc1ccccc1)NC(=O)[C@@H](NC(=O)[C@H](CO)NC(=O)[C@@H](N)CC(C)C)[C@@H](C)O)C(=O)N[C@@H](Cc1ccccc1)C(=O)N[C@@H](CC(N)=O)C(=O)O [LSTFFRLFN]

MIC [25]: 50 µM (≈ 90.3 µg/mL)
MIC [26]: 6.3 µM (≈ 11.4 µg/mL)
MIC [4]: 3 µM (≈ 5.42 µg/mL)
MIC [1]: 3 µM (≈ 5.42 µg/mL)
MIC (Escherichia coli ML-35p): 1.6 µM (≈ 2.89 µg/mL)
MIC [6]: 6.3 µM (≈ 11.4 µg/mL)
SMILES: CC[C@H](C)[C@H](NC(=O)[C@H](CCCCN)NC(=O)[C@H](CC(C)C)NC(=O)[C@H](CC(C)C)NC(=O)[C@@H]1CCCN1C(=O)CNC(=O)[C@H](CC(C)C)NC(=O)[C@H](CCCCN)NC(=O)CN)C(=O)N[C@@H](C)C(=O)N[C@@H](C)C(=O)N[C@@H](CCCCN)C(=O)N[C@H](C(=O)NCC(=O)N[C@@H](CO)C(=O)N[C@@H](CCCCN)C(=O)N[C@@H](CC(C)C)C(=O)N[C@@H](CC(C)C)C(N)=O)C(C)C [GKLGPLLKIAAKVGSKLL]

MIC (Vibrio alginolyticus): ≥ 78.9 µM
MIC (Streptococcus pyogenes): ≥ 158 µM
MIC (Staphylococcus aureus): > 158 µM
MIC (Aeromonas hydrophila): ≥ 158 µM
MIC (Escherichia coli): > 158 µM
MIC (Vibrio fluvialis): ≥ 78.9 µM
SMILES: CC(C)C[C@H](NC(=O)[C@H](CCCCN)NC(=O)[C@H](CCC(N)=O)NC(=O)[C@@H](NC(=O)[C@H](C)NC(=O)[C@H](CCC(=O)O)NC(=O)CNC(=O)CN)C(C)C)C(=O)N[C@H](C(=O)N[C@@H](CCCN=C(N)N)C(=O)N[C@@H](CCC(=O)O)C(=O)N[C@H](C(=O)N[C@@H](CCCCN)C(=O)N[C@@H](CC(=O)O)C(=O)NCC(=O)O)C(C)C)C(C)C [GGEAVQKLVREVKDG]
MIC (Vibrio parahaemolyticus): ≥ 158 µM
